The structures appear in SMILES notation.

Data set [1] has as its target T1, EsaR (Pantoea stewartii subsp. stewartii, UniProt P54293).
T1 construct: expressed in transfected cells; host or cells: E. coli JLD271 (K12 ΔsdiA), arabinose-induced pJN105-esaR
Put plainly: cell-based. Conditions: 100 μM; E. coli EsaR reporter. The essentials:
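E. coli carrying arabinose-induced esaR plus pesaS (activated) or pesaR (repressed) promoter fused to lux or GFP; P. stewartii ESN51 GFP reporters also used.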

The nature of data set [2]: Solubility remark on supplementary figure page. It counts as physicochemical. To be noted: stray annotation on SI page 6.

T1 sequence (P54293 whole entry): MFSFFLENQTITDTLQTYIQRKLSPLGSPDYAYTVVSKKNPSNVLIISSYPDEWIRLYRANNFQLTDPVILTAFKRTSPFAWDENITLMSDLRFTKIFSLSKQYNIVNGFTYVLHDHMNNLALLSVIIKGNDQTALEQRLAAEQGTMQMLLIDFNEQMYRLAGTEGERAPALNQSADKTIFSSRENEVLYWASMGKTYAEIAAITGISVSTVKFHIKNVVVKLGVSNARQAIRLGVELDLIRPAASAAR

Consider `O=C(N[C@H]1CCOC1=O)c1ccc(Cl)c(Cl)c1` [GAF 58], for which the “EsaR agonism at 100 μM (bound stated in text)” value in data set [1] is recorded as “less than 50%”. Moreover, the solubility remark entry in data set [2] is reported as “slighly insoluble”.

Source of the values: paper PMC12459020, “Chemical Probes that Target a Dissociative LuxR-Type Quorum Sensing Receptor in Gram-Negative Bacteria” (ACS Chemical Biology, 2025).
